The source of these data is patent US20040034045A1, “Inhibitors of thrombin induced platelet aggregation” (Parker Hughes Institute, priority 2000, published 2004).

SMILES strings stand for the structures. A value given as a limit tells only on which side of the number the result lay.

In data set [1] the test system is thromboplastin-induced thromboembolism. The data set can be described thus: Thromboplastin-induced thromboembolism model. Type of data set: in vivo. On the procedure: Mice (4-6 week old males, International Cancer Research (IRC)) were treated […] with 200 μL of vehicle (PBS supplemented with 10% DMSO), varying doses of WH-P131 in 200 μL of vehicle (administered intraperitoneally (i.p.) 30 minutes prior to the thromboplastin challenge). The mice were challenged with 25 mg/kg thromboplastin (Sigma, St. Louis, Mo.) via a bolus intravenous injection into the tail vein as previously described (Sato, et.al., 1998 Jpn J. Pharmacol 78(2), 191-7).
At the time of thromboembolism-related death after the thromboplastin injection or elective sacrifice at 48 hours using ketamine/xylazine, all mice were perfused with PBS followed by 4% phosphate buffered formalin. PBS and formalin were pumped through the left ventricle of the heart and allowed to exit through a 3 mm incision through the anterior wall of the right ventricle. During necropsy, several selected tissues (brain, heart, liver, lungs) were harvested, fixed in 10% neutral buffered formalin, dehydrated, and embedded in paraffin by routine methods for histopathologic examination. Glass slides with affixed 6 micron tissue sections were prepared and stained with hemotoxylin and eosin (H&E) or Masson's trichrome.

Data set [2] concerns mice. The data set can be described thus: Tail bleeding time in mice. Type of data set: in vivo. On the procedure: Mice (4-6 week old males, International Cancer Research (IRC)) were treated intravenously with 200 μL vehicle (PBS supplemented with 10% DMSO) or varying doses of WHI-P131 in […] vehicle. To evalulate bleeding and clotting times, treated mice were placed in a tube holder and tail bleeding was performed with a 2 mm cut from the protruding tail tip; the tail was placed vertically into 10 mL normal saline in a 37° C. water bath and bleeding times determined as previously described (Teng, et.al., 1997 Eur J Pharmacol 320(2-3), 161-6).

The nature of data set [3]: Plasma concentration in mice. It counts as in vivo.
The test system of data set [4] is monkeys. In words: Systemic toxicity in monkeys. The conditions noted are these: dose levels 1 mg/kg to 100 mg/kg. It counts as in vivo.
In data set [5] the test system is mice. In words: Systemic toxicity in mice. Type of data set: in vivo.
Data set [6] deals with thrombin-induced platelet aggregation. In words: Thrombin-induced platelet aggregation (platelet aggregometer). Type of data set: cell-based, human. On the procedure:
Platelet-rich plasma (PRP) was purchased from the Memorial Blood Bank (Minneapolis, Minn.) and used according to the guidelines of the Parker Hughes Institute Human Subjects Committee. The PRP samples were treated with varying concentrations of WHI-P131 for 20 minutes at 37° C. Control PRP samples were treated with vehicle alone. The treated PRP samples were diluted 1:4 with sterile normal saline and platelets were stimulated with thrombin (0.1 U/mL, Chronolog Inc., Philadelphia, Pa.) under stirred conditions. Platelet aggregation was monitored in a platelet aggregometer (Model 560 Dual Chamber Instrument, Chronolog Inc., Philadelphia, Pa.) for 5 minutes. The IC50 values for WHI-P131-mediated inhibition of agonist-induced platelet aggregation were calculated by non-linear regression analysis using Graphpad Prism software version 2.0 (Graphpad Software, Inc., San Diego, Calif.).

The subject of data set [7] is platelets. The data set can be described thus: Serotonin release from thrombin-stimulated platelets. It counts as cell-based, human. The conditions noted are these: treated, N=4. On the procedure:
Release of serotonin from thrombin (0.1 U/mL)-stimulated platelets was measured using a serotonin detection kit (Immunotech, Marseille, France) according to the manufacturer's specifications. Sonnicated platelets were used for measurement of the total serotonin content of platelets.

Data set [8] concerns collagen-induced platelet aggregation. In words: Collagen-induced platelet aggregation. It counts as cell-based, human. The conditions noted are these: FIG. 7D.
Data set [9] concerns the target T1, JAK3 (Homo sapiens, UniProt P52333).
T1 sequence (P52333 1-1124): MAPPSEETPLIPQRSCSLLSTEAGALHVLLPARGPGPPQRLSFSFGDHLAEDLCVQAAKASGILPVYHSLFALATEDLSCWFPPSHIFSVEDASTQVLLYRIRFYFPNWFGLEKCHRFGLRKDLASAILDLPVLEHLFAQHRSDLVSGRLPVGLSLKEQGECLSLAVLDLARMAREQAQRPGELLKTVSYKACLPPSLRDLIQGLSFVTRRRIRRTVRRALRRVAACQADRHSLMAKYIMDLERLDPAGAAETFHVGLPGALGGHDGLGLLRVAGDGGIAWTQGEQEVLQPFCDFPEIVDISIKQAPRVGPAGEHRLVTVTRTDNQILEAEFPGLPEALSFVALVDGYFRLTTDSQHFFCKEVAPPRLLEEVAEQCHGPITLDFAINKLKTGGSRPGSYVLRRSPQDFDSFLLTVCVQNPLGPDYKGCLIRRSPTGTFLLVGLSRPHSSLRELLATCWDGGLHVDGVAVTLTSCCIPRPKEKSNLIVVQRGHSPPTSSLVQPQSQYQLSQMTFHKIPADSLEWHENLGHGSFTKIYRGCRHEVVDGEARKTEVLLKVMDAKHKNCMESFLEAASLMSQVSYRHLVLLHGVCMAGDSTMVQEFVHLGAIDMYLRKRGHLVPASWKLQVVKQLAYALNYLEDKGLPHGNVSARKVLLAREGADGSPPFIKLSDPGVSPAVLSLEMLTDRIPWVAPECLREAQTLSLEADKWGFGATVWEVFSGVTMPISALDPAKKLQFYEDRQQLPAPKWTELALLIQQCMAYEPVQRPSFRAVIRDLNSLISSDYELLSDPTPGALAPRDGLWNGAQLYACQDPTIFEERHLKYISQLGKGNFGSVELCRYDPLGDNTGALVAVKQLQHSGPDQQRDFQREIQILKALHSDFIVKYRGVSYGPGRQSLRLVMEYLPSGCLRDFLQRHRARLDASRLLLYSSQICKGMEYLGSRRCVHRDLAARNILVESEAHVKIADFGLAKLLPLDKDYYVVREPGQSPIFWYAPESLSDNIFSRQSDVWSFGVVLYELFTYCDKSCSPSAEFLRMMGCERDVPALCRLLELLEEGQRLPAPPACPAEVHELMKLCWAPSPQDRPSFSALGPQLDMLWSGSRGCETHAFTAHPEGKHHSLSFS
In words: JAK3 inhibition (statement, no method).

`COc1cc2ncnc(Nc3ccc(O)cc3)c2cc1OC` [WHI-P131, 4-(4′-Hydroxyphenyl)-amino-6,7-dimethoxyquinazoline] showed an event-free survival outcome in [1] (mice, 25 mg/kg thromboplastin challenge) of 30±15%. In data set [1] (pretreated, thromboplastin-challenged mice), the “drug-related toxic lesions in organs (histopathology)” value was “No drug-related toxic lesions were detected”. The “average tail bleeding time” value in data set [2] (20 mg/kg, N=5) was 9.4 ± 0.6 min; in data set [2] (40 mg/kg, N=10) it was above 10 min; in data set [2] (80 mg/kg, N=10) it was above 10 min. Also, the “plasma concentrations achieved without toxicity” value in [3] is at least 10 µM. Besides, the “toxicity on systemic administration” value is recorded as “not toxic” in data set [4] and “not toxic” in data set [5] (mice, dose levels 1 mg/kg to 100 mg/kg). In addition, the “survival and health status without thromboplastin challenge” value in data set [5] (20 control mice, 80 mg/kg, 48 hour observation) is listed as “survived beyond the 48 hour observation period without any evidence of impaired health status or bleeding”. Also, the IC50 (commonly the concentration at which inhibition is half-maximal) in data set [6] (Platelet, human platelets, pretreatment 30 minutes, thrombin 0.1 U/mL, average, read-out: IC50, inhibition of thrombin-induced platelet aggregation) was 1.5 µM. Moreover, the “serotonin in platelet supernatants” value in [7] is 313 ± 19 nM. Moreover, the “effect on collagen-induced platelet aggregation” value in [8] is given as “does not inhibit”.
As to `COc1cc2ncnc(Nc3ccccc3)c2cc1OC` [WHI-P258], the “effect on thrombin-induced aggregation of platelets” value in [6] (even at 100 μM) is on record as “did not affect”. The “effect on thrombin induced platelet aggregation (aggregation curves)” value in [6] (thrombin 0.1 U/mL, FIG. 7B/7C) is “had no effect”. For the same compound, the JAK3 inhibition result in data set [9] is on record as “does not inhibit”.
